Results as given in US20050037956A1, “Screening method for agents useful in treating diabetes” (priority 2001, published 2005).

How the values were obtained:
PAI-1 expression = experiment: PAI-1 induction by insulin in adipocytes in presence of PI3K or MEK1 inhibitors; assay type: cell-based; conditions: adipocytes treated by insulin in presence of inhibitor
Experimental: (§1) Adipocyte differentiation was monitored by staining lipids with oil-red O. Briefly, cells were washed twice with phosphate buffered saline (PBS) and fixed with 3.7% formaldehyde solution for 1 h. After washing twice with PBS, cells were stained with oil-red O [60:40 (v/v) dilution in water of 0.5% stock solution (v/v, in isopropanol)] for 1 h. Cells were then washed twice with PBS and twice with water. Lipid-positive cells started to appear after the third day of induction and reached more than 90% by the eighth day. PPARγ (peroxisome proliferator-activated receptor gamma) mRNA, another marker of adipocyte differentiation, also started to appear at the third day and reached a plateau by the 5th day. For RNA analysis, total RNA (12 μg), prepared with acid guanidinium thiocyanate-phenol-chloroform method, was resolved by agarose gel electrophoresis under denaturing conditions and transferred to a nylon membrane as described (Northern blotting) (Ziegler, A., et al., 1991, J Biol Chem 266(31): 21067-74). Equal RNA loading and transfer to nylon membranes were confirmed by staining rRNA with methylene blue (Herrin, D. L. and G. W. Schmidt, 1988, Biotechniques 6(3): 196-7, 199-200). […] Levels of specific RNA were measured using a Molecular Dynamic PhosphorImager. […]

PAI-1 mRNA = PAI-1 mRNA induction by insulin at different stages of NIH3T3-L1 differentiation (Northern blot); assay type: cell-based
Experimental: NIH3T3-L1 preadipocytes (ATCC No. CL-173) were induced to differentiate into adipocytes by treating confluent cells with a mixture of insulin, dexamethasone and isobutylmethylxanthine followed by a successive change of different media (Student, A. K. et al., 1980, J Biol Chem. 255:4745-4750). In brief, NIH3T3-L1 preadipocytic cells (2×10^5 cells) were grown in 60-mm plastic dishes with 4 ml Dulbecco's modified Eagle's medium (DMEM) supplemented with 10% fetal bovine serum (FBS). Two days after cells reached confluency, the medium was changed to DMEM containing 10% FBS, 10 μg/ml insulin, 1 μM dexamethason, and 0.5 mM isobutylmethylxanthine. Two days later, this medium was replaced with DMEM supplemented only with 10 μg/ml insulin. Subsequently, two days later this medium was withdrawn and replaced with DMEM containing 10% FBS, and thereafter cells were replenished with the same medium every two days.
as §1, with “21067-74).” for “21067-74). Equal RNA loading and transfer to nylon membranes were confirmed by staining rRNA with methylene blue (Herrin, D. L. and G. W. Schmidt, 1988, Biotechniques 6(3): 196-7, 199-200).”

[1] = tested on: pRB-E2F interaction (E2F-pRB complex); experiment: Electromobility shift assay (EMSA) with E2pro oligonucleotide and nuclear extracts from day 8 NIH3T3-L1 cells, peptide added to binding reaction; conditions: in vitro, increasing peptide concentration added to binding reaction, day 8 NIH3T3-L1 nuclear extracts
Experimental: Changes in E2F DNA-binding patterns during adipogenesis were investigated. Nuclear extracts were prepared from NIH3T3-L1 cells at different times during induction of differentiation and their E2F DNA-binding activity was assessed by DNA gel shift assays using a radio active E2pro oligonucleotide corresponding to two tandem E2F binding sites in the adenovirus E2 promoter. Oligonucleotide probes were radiolabeled using E. coli polynucleotide kinase and {γ-32P}ATP. The oligonucleotides used for electromobility shift assays (EMSA) were as follows (only upper strands are given): E2pro (corresponding to the −72 to −32 region of the adenovirus E2 promoter; E2F binding site), 5′-[…]-3′ (SEQ ID NO:1); CycD1 (E2F binding site from the cyclin D1 promoter), 5′-[…]-3′ (SEQ ID NO:2); CycD1m, 5′-[…]-3′ (SEQ ID NO:3, mutated nucleotides in bold italic). […] The gel was dried and analyzed using a PhosphorImager. […]
The specific peptide was modified to improve cell penetration by linking to the amino terminal end of the interfering peptide a specific region of the HIV tat protein of 18 amino acids in length, which renders conjugated peptides cell-penetrable (Schwarze, S. R., et al., 1999, Science 285(5433): 1569-72). The effect of this elongated interfering peptide on E2F was first assessed in vitro as above. […]

Compound: COc1cccc(-c2cc(=O)c3ccccc3o2)c1N [PD98059]
- PAI-1 induction by insulin (PAI-1 expression): suppressed

Compound: insulin
- PAI-1 mRNA induction by insulin (PAI-1 mRNA; NIH3T3-L1 cells before cells were confluent): induced to a very low extent
- PAI-1 mRNA induction by insulin (PAI-1 mRNA; NIH3T3-L1 cells when confluent): not at all
- PAI-1 mRNA induction by insulin (PAI-1 mRNA; terminally differentiated cells (day 4 and 8)): induced markedly

Compound: specific interfering peptide: peptide whose sequence was derived from amino acids 402-419 of E2F1 corresponding to the pRB-binding region of E2F1 (LSPPHEALDYHFGLEEGE; UniProt Q01094 402-419, looked up, fragment)
- shift of DNA-protein complexes (E2F DNA-binding, EMSA) [1]: shift from DNA-protein complexes of higher molecular weight forms to complexes of lower molecular weight forms
